Assay results as given in patent publication US8952024B2, “Herbicidal pyrimidone derivatives” (E I du Pont de Nemours and Company, priority 2009, dated 2015).

What was measured:
Type in all cases: in vivo
[1] = test system: barnyardgrass (Echinochloa crus-galli); assay: Test B flooded paddy test; conditions: for Plant response rating, Barnyardgrass: Flood (flooded paddy test), 13 to 15 days
Method in brief: (§1)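 Ratings are visual, 0–100 (100 = complete control), taken versus untreated controls 13 to 15 days after treatment in the greenhouse. Compound went straight into paddy water held 3 cm above soil, applied to 2-leaf-stage plants of four species.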

[2] = test system: umbrella sedge (Cyperus difformis); assay: Test B flooded paddy test; conditions: for Plant response rating, Sedge, Umbrella: Flood (flooded paddy test), 13 to 15 days
Method in brief: as §1

wild oat (Avena fatua) = assay: Test B pre-/postemergence plant response; conditions: for Plant response rating, Oat, Wild: Postemergence
Method in brief: (§2)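 Greenhouse herbicide screen. Pre- and postemergence (1- to 4-leaf) spray of compound in solvent/surfactant mixture; loam–sand soil for pre, peat/vermiculite medium for post. Visual control rating 0–100 at 13 to 15 days after treatment.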

[3] = test system: morningglory (Ipomoea coccinea); assay: Test B pre-/postemergence plant response; conditions: for Plant response rating, Morningglory: Postemergence
Method in brief: as §2

[4] = test system: large crabgrass (Digitaria sanguinalis); assay: Test B pre-/postemergence plant response; conditions: for Plant response rating, Crabgrass, Large: Postemergence
Method in brief: as §2

[5] = test system: lambsquarters (Chenopodium album); assay: Test B pre-/postemergence plant response; conditions: for Plant response rating, Lambsquarters: Postemergence
Method in brief: as §2

[6] = test system: wheat (Triticum aestivum); assay: Test B pre-/postemergence plant response; conditions: for Plant response rating, Wheat: Postemergence
Method in brief: as §2

[7] = test system: green foxtail (Setaria viridis); assay: Test B pre-/postemergence plant response; conditions: for Plant response rating, Foxtail, Green: Postemergence
Method in brief: as §2

[8] = test system: bermudagrass (Cynodon dactylon); assay: Test B pre-/postemergence plant response; conditions: for Bermudagrass plant response rating (0 to 100 scale): 62 g ai/ha, postemergence, 0 is no effect, 100 is complete control; for Plant response rating, Bermudagrass: Postemergence
Method in brief: as §2

[9] = test system: cocklebur (Xanthium strumarium); assay: Test B pre-/postemergence plant response; conditions: for Plant response rating, Cocklebur: Postemergence
Method in brief: as §2

[10] = test system: yellow nutsedge (Cyperus esculentus); assay: Test B pre-/postemergence plant response; conditions: for Plant response rating, Nutsedge, Yellow: Postemergence
Method in brief: as §2

[11] = test system: goosegrass (Eleusine indica); assay: Test B pre-/postemergence plant response; conditions: for Plant response rating, Goosegrass: Postemergence
Method in brief: as §2

[12] = 125 g ai/ha, scale 0 to 100, 0 is no effect, 100 is complete control
[13] = Flood, 31 g ai/ha, scale 0 to 100 (0 no effect, 100 complete control)
[14] = 31 g ai/ha, 0 to 100 scale (0 no effect, 100 complete control)
[15] = 125 g ai/ha, scale 0 to 100 (0 no effect, 100 complete control)
[16] = 250 g ai/ha, scale 0 to 100 (0 no effect, 100 complete control), 13 to 15 days
[17] = 250 g ai/ha, flooded paddy test, visual rating on 0 to 100 scale (0 no effect, 100 complete control) after 13 to 15 days
[18] = 62 g ai/ha, scale of 0 to 100 where 0 is no effect and 100 is complete control
[19] = 62 g ai/ha, postemergence, 0 is no effect, 100 is complete control, 13 to 15 days

## O=C1CCCC(O)=C1C(=O)c1cnc(-c2cc(F)cc(F)c2)n(C2CCCCC2)c1=O [Compound 181]
[1]; [12]
  Plant response rating, Barnyardgrass: 70
[1]; [13]
  Barnyardgrass plant response rating: 0
[2]; [12]
  Plant response rating, Sedge, Umbrella: 85
[2]; [13]
  Sedge, Umbrella plant response rating: 75
Wild oat (Avena fatua); [14]
  Plant response rating, Oat, Wild: 65
Wild oat (Avena fatua); [15]
  Plant response rating, Oat, Wild: 90
Wild oat (Avena fatua); [16]
  Plant response rating, Oat, Wild: 100
[3]; [14]
  Plant response rating, Morningglory: 95
[3]; [15]
  Plant response rating, Morningglory: 100
[3]; [16]
  Plant response rating, Morningglory: 100
[4]; [14]
  Plant response rating, Crabgrass, Large: 98
[4]; [15]
  Plant response rating, Crabgrass, Large: 100
[4]; [16]
  Plant response rating, Crabgrass, Large: 100
[5]; [14]
  Plant response rating, Lambsquarters: 100
[5]; [15]
  Plant response rating, Lambsquarters: 100
[5]; [16]
  Plant response rating, Lambsquarters: 100
[6]; [14]
  Plant response rating, Wheat: 40
[6]; [15]
  Plant response rating, Wheat: 50
[6]; [16]
  Plant response rating, Wheat: 70
[7]; [14]
  Plant response rating, Foxtail, Green: 70
[7]; [15]
  Plant response rating, Foxtail, Green: 95
[7]; [16]
  Plant response rating, Foxtail, Green: 98
[8]; 13 to 15 days
  Bermudagrass plant response rating (0 to 100 scale): 100
[8]; [14]
  Plant response rating, Bermudagrass: 100
[8]; [15]
  Plant response rating, Bermudagrass: 100
[8]; [16]
  Plant response rating, Bermudagrass: 100
[9]; [14]
  Plant response rating, Cocklebur: 100
[9]; [15]
  Plant response rating, Cocklebur: 100
[9]; [16]
  Plant response rating, Cocklebur: 100
[10]; [14]
  Plant response rating, Nutsedge, Yellow: 60
[10]; [15]
  Plant response rating, Nutsedge, Yellow: 80
[10]; [16]
  Plant response rating, Nutsedge, Yellow: 85
[11]; [14]
  Plant response rating, Goosegrass: 95
[11]; [15]
  Plant response rating, Goosegrass: 100
[11]; [16]
  Plant response rating, Goosegrass: 100

## O=C1CCCC(O)=C1C(=O)c1cnc(-c2ccccc2)n(C2CCCC2)c1=O [Compound 131]
[1]; [17]
  Plant response rating, Flood, Barnyardgrass: 50
[1]; [18]
  Plant response rating, Barnyardgrass: 20
[2]; [17]
  Plant response rating, Flood, Sedge, Umbrella: 85
[2]; [18]
  Plant response rating, Sedge, Umbrella: 20
Wild oat (Avena fatua); 16 g ai/ha, 0 to 100 scale
  Plant response rating, Oat, Wild: 0
Wild oat (Avena fatua); [19]
  Oat, Wild plant response rating (0 to 100 scale): 0
Wild oat (Avena fatua); [14]
  Plant response rating, Oat, Wild: 0
Wild oat (Avena fatua); [15]
  Plant response rating, Oat, Wild: 0
[3]; 16 g ai/ha, 0 to 100 scale
  Plant response rating, Morningglory: 5
[3]; [19]
  Morningglory plant response rating (0 to 100 scale): 70
[3]; [14]
  Plant response rating, Morningglory: 70
[3]; [15]
  Plant response rating, Morningglory: 75
[4]; 16 g ai/ha, 0 to 100 scale
  Plant response rating, Crabgrass, Large: 65
[4]; [19]
  Crabgrass, Large plant response rating (0 to 100 scale): 75
[4]; [14]
  Plant response rating, Crabgrass, Large: 75
[4]; [15]
  Plant response rating, Crabgrass, Large: 80
[5]; 16 g ai/ha, 0 to 100 scale
  Plant response rating, Lambsquarters: 75
[5]; [19]
  Lambsquarters plant response rating (0 to 100 scale): 95
[5]; [14]
  Plant response rating, Lambsquarters: 85
[5]; [15]
  Plant response rating, Lambsquarters: 98
[6]; 16 g ai/ha, 0 to 100 scale
  Plant response rating, Wheat: 0
[6]; [19]
  Wheat plant response rating (0 to 100 scale): 0
[6]; [14]
  Plant response rating, Wheat: 0
[6]; [15]
  Plant response rating, Wheat: 0
[7]; 16 g ai/ha, 0 to 100 scale
  Plant response rating, Foxtail, Green: 40
[7]; [19]
  Foxtail, Green plant response rating (0 to 100 scale): 90
[7]; [14]
  Plant response rating, Foxtail, Green: 70
[7]; [15]
  Plant response rating, Foxtail, Green: 95
[8]; 16 g ai/ha, 0 to 100 scale
  Plant response rating, Bermudagrass: 60
[8]; 13 to 15 days
  Bermudagrass plant response rating (0 to 100 scale): 75
[8]; [14]
  Plant response rating, Bermudagrass: 65
[8]; [15]
  Plant response rating, Bermudagrass: 85
[9]; 16 g ai/ha, 0 to 100 scale
  Plant response rating, Cocklebur: 80
[9]; [19]
  Cocklebur plant response rating (0 to 100 scale): 98
[9]; [14]
  Plant response rating, Cocklebur: 95
[9]; [15]
  Plant response rating, Cocklebur: 100
[10]; 16 g ai/ha, 0 to 100 scale
  Plant response rating, Nutsedge, Yellow: 0
[10]; [19]
  Nutsedge, Yellow plant response rating (0 to 100 scale): 25
[10]; [14]
  Plant response rating, Nutsedge, Yellow: 15
[10]; [15]
  Plant response rating, Nutsedge, Yellow: 45
[11]; 16 g ai/ha, 0 to 100 scale
  Plant response rating, Goosegrass: 65
[11]; [19]
  Goosegrass plant response rating (0 to 100 scale): 65
[11]; [14]
  Plant response rating, Goosegrass: 65
[11]; [15]
  Plant response rating, Goosegrass: 75
